According to patent US8029774B2, “Wound healing polymeric networks” (University of Pittsburgh, priority 2005, dated 2011):

How the values were obtained:
[1] = test system: human dermal fibroblasts; assay: Cell motility, in vitro wound healing assay; settings: for movement of fibroblasts: in vitro wound healing assay, compared to no gel
[2] = test system: human keratinocytes (HaCaT cells); assay: Cell motility, in vitro wound healing assay; settings: compared to no gel
[3] = test system: human fibroblasts

| Structure (SMILES) | movement of fibroblasts [1] | movement of keratinocytes [2] | also measured |
| --- | --- | --- | --- |
| OC[C@H]1O[C@@H](O[C@H]2[C@H](O)[C@@H](O)C(O)O[C@@H]2CO)[C@H](O)[C@@H](O)[C@H]1O (some centres unmarked) [lactose] | limited cell movement | limited cell movement | – |
| COC(=O)C(CCCCN=C=O)N=C=O (centres unmarked) [LDI, Lysine diisocyanate methyl ester] | limited cell movement | limited cell movement | – |
| [Ag] [silver] | – | – | impact on cell migration or proliferation ([1]; silver per se): no adverse impact; concentrations of silver preferred for cell proliferation [3]: lower than 15 μg/ml; fibroblasts proliferation [3]: greatly inhibited |
| O=[N+]([O-])[O-].[Ag+] [silver nitrate] | – | – | dead cells ([3]; human fibroblasts, 3 μg/ml of silver nitrate in medium, or polymer cured with 3 μg/ml silver): 10% |
